# In ChEMBL document CHEMBL3758090, “Investigation of α-conotoxin unbinding using umbrella sampling” (Bioorg Med Chem Lett, 2016):
# Positions of bridges follow the written chain, without caps; N, C: chain ends. Residues, ends and D or L forms follow the SMILES beside them.
# Biological target: T1, Soluble acetylcholine receptor (Aplysia californica, UniProt Q8WSF8)
# T1 sequence (Q8WSF8 whole entry): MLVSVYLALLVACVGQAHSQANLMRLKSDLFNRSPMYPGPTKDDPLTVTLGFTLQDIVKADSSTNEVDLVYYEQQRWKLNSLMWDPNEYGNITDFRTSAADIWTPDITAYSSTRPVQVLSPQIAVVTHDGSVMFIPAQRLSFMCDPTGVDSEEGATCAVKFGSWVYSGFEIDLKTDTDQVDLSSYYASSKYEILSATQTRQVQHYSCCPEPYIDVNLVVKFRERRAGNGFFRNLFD
# Experiment: Displacement [125I]alpha-bungarotoxin from untagged Aplysia californica AChBP expressed in Sf9 cells by competitive binding assay
compound,measurement,value
"CC(C)C[C@@H]1NC(=O)[C@H](C)NC(=O)[C@@H]2CSSC[C@H](NC(=O)CN)C(=O)N[C@@H](CSSC[C@@H](C(=O)O)NC(=O)[C@H](Cc3ccc(O)cc3)NC(=O)[C@H](CCCCN)NC(=O)[C@@H]3CCCN3C(=O)[C@H](CC(N)=O)NC(=O)[C@H](CC(N)=O)NC1=O)C(=O)N[C@@H](CO)C(=O)N[C@@H](CC(C)C)C(=O)N1CCC[C@H]1C(=O)N1CCC[C@H]1C(=O)N2 (H-GCCSLPPCALNNPKYC-OH; disulfide 2-8, 3-16)",IC50,28 nM
